We go through 7 compounds from patent US7553816B2, “p-amidobenzylethers in drug delivery agents” (priority 2001, dated 2009).

Where “and” joins values, the source holds several entries; their conditions need not be identical. Identical values can stand only once. Like-named read-outs stand apart in the source and are kept apart here.

One data set concerns cathepsin B. The following applies: cited from earlier work.
For data set [1], the target named is T1, Bovine spleen cathepsin B (Bos taurus, UniProt P07688).
T1 construct: Bovine spleen cathepsin B (Sigma-Aldrich); purchased Sigma-Aldrich; host or cells: bovine spleen (tissue-derived)
The data set is classed as biochemical. The following applies: for Products released upon treatment with cathepsin B: HPLC analysis. The method, then:
Bovine spleen cathepsin B (Sigma-Aldrich), dissolved in phosphate buffered saline (pH 7.2, 1 mg/mL final concentration), was activated as previously described (Bajkowski, A. S.; Frankfater, A. Specific Spectrophotometric Assays for Cathepsin B. Anal. Biochem. 1975, 68, 119-127). […] In the case of the naphthol ether 2, a 5.0 mM solution in MeOH was diluted to a final concentration of 0.22 mM. Periodically, aliquots were taken, quenched with an equal volume of MeCN, centrifuged, and 100 μL injections analyzed by HPLC (4.6 mm×15 cm C18 column) with detection between 210 and 400 nm. […] The gradient elution was 90% to 10% A over 10 min, followed by 5 min at 10% A, and the flow rate was 1.0 mL/min. The disappearance of substrate and the appearances of released alcohol and Cbz-val-cit were recorded. Cathepsin B hydrolysis rates were calculated according to the disappearance of substrate (Table 7).

A short description of data set [2]: Stability studies in PBS pH 7.2 or acetate buffer pH 5.1 at 37° C., HPLC. The note with it: for Stability pH 5.1, loss of starting material: acetate buffer pH 5.1, 37° C.; for Stability pH 5.1, loss of starting material / Stability pH 7.2, loss of starting material: 7 days; for Stability at pH 5.1 (in words): pH 5.1, 37° C.; for Stability at pH 5.1 (in words) / Stability at pH 7.2 (in words): absence of added enzyme; for Stability at pH 7.2 (in words): pH 7.2, 37° C.; for Stability pH 7.2, loss of starting material: phosphate buffered saline pH 7.2, 37° C. It is filed as physicochemical. The protocol:
The other samples were injected directly into the HPLC.

In data set [3] the test system is L2987 human lung adenocarcinoma cells. Kind of data set: In vitro cytotoxicity assay, [3H] thymidine incorporation. It is filed as cell-based. The method, then:
(§1) FIG. 1 is a graph showing the cytotoxic effects on L2987 human lung adenocarcinoma (A and D), WM266/4 (B), and IGR-39 (C) human melanoma cell lines. The cells were exposed to various concentrations of the drugs for 24 h, washed, incubated for a further 48 h, and the cytotoxic activities were quantified through the incorporation of [^3H] thymidine relative to untreated control cells.
(§2) The cell lines (L2987 human lung adenocarcinoma, WM266/4 and IGR-39 human melanomas) were exposed to the agents for 24 h, washed, and viability was determined two days later by measuring the incorporation of ^3H-thymidine compared to the untreated controls.
L2987 human lung adenocarcinoma cells were obtained as previously described (Svensson, H. P.; Vrudhula, V. M.; Emsweiler, J. E.; MacMaster, J. F.; Cosand, W. L.; Senter, P. D.; Wallace, P. M. In Vitro and In Vivo Activities of a Doxorubicin Prodrug in Combination with Monoclonal Antibody β-Lactamase Conjugates. Cancer Res. 1995, 55, 2357-2365). WM266/4 and IGR-39 human melanoma cells were obtained from ATCC (Manassas, Va.) and DSMZ (Braunschweig, Germany), respectively. L2987 and WM266/4 cells were grown in Roswell Park Memorial Institute (RPMI) medium containing 10% fetal bovine serum and 10U/mL penicillin G and 10 μg/mL streptomycin sulfate. Dulbecco's modified Eagle's medium was used in place of RPMI for the IGR-39 cells. The cells (2,500 cells in 0.1 mL medium) were plated into 96-well plates, and after 24 h at 37° C., various concentrations of the drugs in medium (50 μL) were added in triplicate. Incubation was continued for an additional 24 h, the cultures were washed, and fresh medium (0.15 mL) was added. After 48 h at 37° C., [^3H] thymidine (25 μL, 0.5 μCi/well) was added, and the cultures were frozen and harvested 4 h later. Incorporation of label was measured using a β-counter.
In general terms: Dividing cells build labelled thymidine or BrdU into new DNA.

For data set [4] the following is noted: pooled human serum, 37° C.; for Stability Human serum, loss of starting material: 7 days.
Protocol: Solutions of the substrates (0.08-0.14 mM in DMSO, and 0.22 mM in MeOH for 2) were diluted 10-20-fold in PBS, acetate buffer (25 mM, pH 5.1), or pooled human serum, and incubation was carried out at 37° C. For the serum studies, equal volumes of MeCN were added and the samples were centrifuged prior to HPLC analysis. The other samples were injected directly into the HPLC.
The subject of data set [5] is IGR-39 human melanoma cells. The following applies: 24 h exposure, 48 h further, range stated for all three cell lines. The method, then:
as §1, §2
(§3) L2987 human lung adenocarcinoma cells were obtained as previously described (Svensson, H. P.; Vrudhula, V. M.; Emsweiler, J. E.; MacMaster, J. F.; Cosand, W. L.; Senter, P. D.; Wallace, P. M. In Vitro and In Vivo Activities of a Doxorubicin Prodrug in Combination with Monoclonal Antibody β-Lactamase Conjugates. Cancer Res. 1995, 55, 2357-2365). WM266/4 and IGR-39 human melanoma cells were obtained from ATCC (Manassas, Va.) and DSMZ (Braunschweig, Germany), respectively. L2987 and WM266/4 cells were grown in Roswell Park Memorial Institute (RPMI) medium containing 10% fetal bovine serum and 10U/mL penicillin G and 10 μg/mL streptomycin sulfate. […] Incorporation of label was measured using a β-counter.

In data set [6] the test system is WM266/4 human melanoma cells. The following applies: 24 h exposure, 48 h further, range stated for all three cell lines. The protocol: as §1, §2, §3
[7] abbreviates: loss of starting material at 37° C. in pH 5.1 acetate buffer.

On to `COc1cccc2c1C(=O)c1c(O)c3c(c(O)c1C2=O)CC(O)(C(=O)CO)CC3OC1CC(NC(=O)OCc2ccc(NC(=O)C(CCCNC(N)=O)NC(=O)C(NC(=O)OCc3ccccc3)C(C)C)cc2)C(O)C(C)O1` (stereo not shown) [Cbz-val-cit-PAB-doxorubicin carbamate], for which, in the data set on cathepsin B, the “Release of drug upon treatment with cathepsin B” value was “released active doxorubicin”.
As for `COc1ccc(/C=C\c2cc(OC)c(OC)c(OC)c2)cc1OC(=O)OCc1ccc(NC(=O)[C@H](CCCNC(N)=O)NC(=O)[C@@H](NC(=O)OCc2ccccc2)C(C)C)cc1` [Compound 11, CBZ-VAL-CIT-PAB-OCO-COMBRETASTATIN A-4], in data set [1], the “Products released upon treatment with cathepsin B” value (“Products released upon treatment” for short) is on record as “VIIIb”. Further, the “Specific activity of cathepsin B” value in data set [1] (setting [7]) came out at 32 nmol/ nmol/min/mg. Also, in data set [2] (aqueous environments), the “Stability in aqueous environments (in words)” value is “unstable”. Further, the “Cytotoxicity compared with combretastatin A-4 (VIIIb), in words” value in data set [3] (FIG. 1D) is reported as “as cytotoxic as combretastatin A-4 (VIIIb)”.
For `CC(C)[C@H](NC(=O)OCc1ccccc1)C(=O)N[C@@H](CCCNC(N)=O)C(=O)Nc1ccc(COc2cccc3ccccc23)cc1` [Compound 2, CBZ-VAL-CIT-PAB-1-O-NAPHTHOL], the “Products released upon treatment” value in data set [1] is “the products formed were naphthol and Cbz-val-cit-COOH”. Moreover, the “Specific activity of cathepsin B” value in data set [1] (pH 5.1) was 350 nmol/min/mg and 350 nmol/ nmol/min/mg. For the same compound, in data set [2], the “Stability pH 5.1, loss of starting material” value (“Stability pH 5.1, loss” for short) is given as 0% loss, 7 days; the “Stability at pH 5.1 (in words)” value is reported as “no breakdown”; the “Stability at pH 7.2 (in words)” value was “no breakdown”; the “Stability pH 7.2, loss of starting material” value (shortened to “Stability pH 7.2, loss”) was 0% loss, 7 days. Further, in data set [4], the “Stability in human serum (in words)” value is reported as “no breakdown” and the “Stability Human serum, loss of starting material” value is 0% loss, 7 days.
Regarding “CBZ-VAL-CIT-PAB-OCO-(1S, 2R)-(N-ACETYL)NOREPHEDRINE [Compound 10]”, the “Products released upon treatment” value in data set [1] is reported as “formation of 4”. Besides, in data set [1] (setting [7]), the “Specific activity of cathepsin B” value came out at 150 nmol/ nmol/min/mg.
Take `COc1ccc(/C=C\c2cc(OC)c(OC)c(OC)c2)cc1OCc1ccc(NC(=O)[C@H](CCCNC(N)=O)NC(=O)[C@@H](NC(=O)OCc2ccccc2)C(C)C)cc1` [Compound 7, CBZ-VAL-CIT-PAB-3′-O-COMBRETASTATIN A-4]: the “Products released upon treatment” value in data set [1] is reported as “combretastatin A-4 (VIIIb)”. Further, in data set [1] (setting [7]), the “Specific activity of cathepsin B” value was determined as 61 nmol/ nmol/min/mg. Further, in data set [2], the “Stability pH 5.1, loss” value is 0% loss, 7 days; the “Stability at pH 5.1 (in words)” value is recorded as “stable”; the “Stability at pH 7.2 (in words)” value is on record as “stable”; the “Stability pH 7.2, loss” value is recorded as 0% loss, 7 days. The “Factor less potent than combretastatin A-4 (VIIIb)” value in data set [3] (L2987 human lung adenocarcinoma cells (FIG. 1D)) was 13. In addition, in data set [4], the “Stability in human serum (in words)” value is recorded as “stable” and the “Stability Human serum, loss of starting material” value was 0% loss, 7 days.
As for `COc1cc([C@@H]2c3cc4c(cc3[C@@H](O[C@@H]3O[C@@H]5CO[C@@H](C)O[C@H]5[C@H](O)[C@H]3O)[C@H]3COC(=O)[C@H]23)OCO4)cc(OC)c1OCc1ccc(NC(=O)[C@H](CCCNC(N)=O)NC(=O)[C@@H](NC(=O)OCc2ccccc2)C(C)C)cc1` [Compound 6, CBZ-VAL-CIT-PAB-O-ETOPOSIDE], the “Products released upon treatment” value in data set [1] is given as “release of etoposide (VIIIa)”. Also, in data set [1] (setting [7]), the “Specific activity of cathepsin B” value was 160 nmol/ nmol/min/mg. Further, in data set [2], the “Stability pH 5.1, loss” value is given as 0% loss, 7 days; the “Stability at pH 5.1 (in words)” value is given as “stable”; the “Stability at pH 7.2 (in words)” value was “stable”; the “Stability pH 7.2, loss” value is 0% loss, 7 days. In data set [3] (L2987, 24 h exposure, 48 h further, range stated for all three cell lines), the “Cytotoxic activity, times etoposide (VIIIa) more active than 6” value (“Cytotoxic activity, times etoposide” below) is on record as 15-22 times. In data set [5], the “Cytotoxic activity, times etoposide” value is given as 15-22 times. Further, the “Cytotoxic activity, times etoposide” value in data set [6] is 15-22 times.
In the case of “CBZ-VAL-CIT-PAB-O-(N-AC)-NOR [Compound 5]”, the “Products released upon treatment” value in data set [1] was “no N-acetylnorephedrine was detected”. Further, the “Specific activity of cathepsin B” value in data set [1] (setting [7]) turned out to be 145 nmol/ nmol/min/mg. For the same compound, in data set [2], the “Stability pH 5.1, loss” value is 0% loss 7 d and the “Stability pH 7.2, loss” value was found to be 0% loss 7 d.
